Experimental findings from patent US20050203011A1, “Mitigating symptoms and behaviors of substance abuse by modulating GDNF or BDNF pathway activity” (The Regents of the University of California, priority 2003, published 2005) are described below.

Test [1] deals with rats. The experiment in a line: Ethanol operant self-administration after systemic ibogaine. It is filed as in vivo, rat. The following applies: 40 mg/kg i.p., 3 hours prior to session. From the text: Rats were water restricted, and then trained to lever press for a 10 S/10 E reinforcer solution in 3 overnight sessions. On the 4th day, rats were allowed ad libitum access to water in the home cage, and were transferred to 1-hour daily sessions wherein responses were reinforced with 5 S/10 E on a fixed-ratio 3 (FR3) schedule. Sucrose was phased out of the reinforcer solution over the next 7 days until the solution consisted of 10 E only. Experimental manipulations began after 30 sessions when stable 10 E intake of >0.4 g/kg ethanol was attained.

Test [2] deals with rats. Put plainly: Ethanol reinstatement after extinction, systemic ibogaine. Particulars: 40 mg/kg i.p., 3 hours before test. The test is classed as in vivo, rat. From the text: The eight rats used in the operant self-administration study were also used to study ethanolseeking after a period of extinction. Following a period of stable responding for ethanol, rats underwent extinction in which no ethanol was delivered following active lever responses.

The test system of the next test is DBA mice. Put plainly: Conditioned place preference test (CPP). The test is classed as in vivo, mouse. The following applies: ibogaine 40 mg/kg i.p. during CPP acquisition, before expression, or both. Here is the method: The CPP apparatus (Med Associates) consisted of two visually distinctive conditioning compartments connected by a smaller center compartment. The CPP procedure consisted of three phases: preconditioning (Day 1), conditioning (Days 2-9), and post-conditioning (Day 10). On Day 1, mice were placed into the center compartment and allowed free access to both conditioning compartments for 30 minutes. […] Mice were given access to one conditioning chamber for 5 minutes immediately after injection or 3 h after injection. […] Control subjects received saline in both conditioning chambers. […] Ethanol treatment was followed by placement within one conditioning chamber, alternated with saline treatment and placement into the other conditioning chamber, as described above. On Day 10, animals were tested for CPP by allowing free access to both conditioning compartments for 30 minutes. Photocell counts provided a measure of locomotor activity as well as time spent in each compartment

Test [3] has as its system rats. Put plainly: VTA microinjection of ibogaine, ethanol operant self-administration. It is filed as in vivo, rat. The protocol:
After ethanol self-administration was established as described above, subjects attained a mean daily intake of ethanol of 0.62±0.07 g/kg. Bilateral guide cannula (26 gauge, Plastics One) were implanted into the VTA (5.6 mm posterior to bregma, 1.0 mm mediolateral, 8.0 mm ventral to the skull surface). After 7 to 10 days recovery, sham injections were conducted prior to ethanol self-administration sessions to habituate subjects to the microinjection procedure. […] Injection cannulae were left in place for an additional 2 minutes to allow for diffusion of the drug. Three, 24 and 48 hours post injection, rats were placed into the self-administration chambers for a 1-hour self-administration session.

The test system of test [4] is GDNF. Put plainly: GDNF expression in the midbrain after i.p. ibogaine (RT-PCR), mice. Particulars: 40 mg/kg i.p., 1, 6 or 12 h post injection. The test is classed as in vivo, mouse. The protocol:
Total RNA was isolated using Trizol reagent and reverse transcribed using Reverse Transcription System kit with the oligo (dT)15 primer at 42ûC for 30 minutes. GDNF, Actin or GPDH expressions were analyzed by RT-PCR. The GDNF primers were based on the coding frame of the human GDNF gene: upstream, 5′-TGCCAGAGGATTATCCTGATCAGTTCG ATG3′ (SEQ ID NO: 1); and downstream, 5′-TTGTCGTACGTTGTCTCAGCTGCATCGCAA-3′ (SEQ ID NO:2). The Actin primers were based on the human Actin gene: upstream, 5′-TCATGAAGTGTGACGTTGACATC-3′ (SEQ ID NO:3); and downstream, 5′-AGAAGCATTTGCGGTGGACGATG-3′ (SEQ ID NO:4). The GPDH primers were based on the rat GPDH gene: upstream, 5′-TGAAGGTCGGTGTCAACGGATTTGGC-3′ (SEQ ID NO:5); and downstream, 5′-CATGTAGGCCATGAGGTCCACCAC-3′ (SEQ ID NO:6). PCR conditions were optimized to specifically ensure that the amplification reactions are within the linear range by testing a range of 25-40 PCR cycles. The optimal numbers of cycles used were: 30 cycles for controls GPDH and actin and 35 cycles for GDNF.
Male C57B16 mice or Long Evans rats were habituated with 3 saline injections over 3 days followed by i.p. administration of 40 mg/kg ibogaine-HCl. The animals were sacrificed 1, 6 or 12 hours post injection, and brain regions were excised and stored at −80° C. until use for analysis of GDNF expression by RT-PCR.

In test [5] the test system is GDNF. The experiment in a line: GDNF secretion into medium of SHSY5Y cells (ELISA). The test is classed as cell-based, human. Particulars: 10 μM. The text has this: GDNF secretion in the medium was detected using GDNF Emax Immunoassay System according to (Balkowiec and Katz, 2000). GDNF concentration was interpolated from the standard curves (linear range of 15.6-1000 pg/ml).

Test [6] relates to Ret association with GFRα1. The experiment in a line: Ret association with GFRα1 in SHSY5Y cells (immunoprecipitation, Western blot). The test is classed as cell-based, human. Particulars: 3 hours. Here is the method:
(§1) Expression of GDNF and control Actin were analyzed by RT-PCR (n=4). […] GDNF in the media was detected by an ELISA assay. Histogram depicts the mean±SD of GDNF secretion in 3 experiments. […] Ret was immunoprecipitated with anti-Ret antibodies followed by Western blot analysis with anti GFRα1 antibodies. The levels of GFRα1 in the homogenates were determined by Western blot analysis (n=3). […] Ret was immunoprecipitated followed by Western blot analysis with anti-phospho tyrosine or anti-Ret antibodies (n=3). […] Trk phosphorylation was analyzed by Western blot analysis with anti-phospho-Trk antibodies. The levels of TrkB were also determined by Western blot analysis (n=3). Panel F: Cells were pre-incubated with 0.3 unit/ml PI-PLC for 1 h (lanes 3 and 4). […] Ret phosphorylation was determined as described above (n=4). […] Treatment with 50 ng/ml GDNF was used as a positive control (lane 5). The cells were lysed and Ret phosphorylation was analyzed as described above (n=3).
(§2) Cells were collected and lysed in RIPA buffer (50 mM Tris-Cl, pH 7.6, 150 mM NaCl, 1 % NP40, 0.1% SDS, 0.5% sodium deoxycholate, 2 mM EDTA, protease inhibitor cocktail and 10 mM sodium orthovanadate). Homogenates were incubated with 5 N^og anti-Ret antibody in TBS-T buffer (20 mM Tris-Cl, pH7.6, 137 mM NaCl and 1% NP-40) overnight at 4° C., followed by 2 hours incubation with Protein G agarose. […]
(In general: Immunoblotting shows a protein as a band on a membrane.)

The next test concerns Ret. Put plainly: Ret phosphorylation in SHSY5Y cells. It is filed as cell-based, human. Particulars: dose- and time-dependent. The protocol:
as §1, §2

As to 12-methoxyibogamine [ibogaine], the “responding at the ethanol-paired lever” value with rats [1] was “decreased”. Moreover, in the test on rats [2], the “reinstatement of lever pressing for ethanol” value is recorded as “reduced”. In addition, the “rewarding properties of ethanol (ethanol-induced CPP)” value in the test with DBA mice is “not altered”. The “lever responding for ethanol” value in the test with rats [3] (intra-VTA 0.1 μM, any tested time point) is given as “did not differ from responding following vehicle”. The “lever presses for ethanol, return to baseline” value in the test on rats [3] (intra-VTA 10 μM) is given as “did not return to baseline levels within 48 hours”. For the same substance, the “lever responding for ethanol” value in the test with rats [3] (intra-VTA 10 μM, 3, 24 and 48 hours, vs vehicle) is given as “significantly reduced responding at all time points”. Besides, the ethanol-paired lever pressing entry in the test on rats [3] (intra-VTA 0.1, 1.0 and 10.0 μM/0.5 μl, 3 hours before session, dose-dependent) was “significantly decreased”. The “expression of GDNF in the midbrain” value in the test with GDNF [4] is listed as “increase”. The “GDNF levels in the media (secretion)” value in the test on GDNF [5] is listed as “accumulated in the media in a time-dependent manner”. Besides, in test [6], the GFRα1 protein levels result is “not due to increased GFRα1 protein levels” and the “Ret association with GFRα1” value is on record as “increased”. In addition, in the test with Ret, the Ret phosphorylation entry is recorded as “induced”.
